Ends that are not written are not given here.
Columns and labels:
Ca2/CaM12’ = biological target: T1, Ca2/CaM12’ (Xenopus laevis, UniProt P0DP33, D21A/D23A/D25A/D57A/D59A/E32Q/E68Q/N61A); experiment: ITC of Ca2/CaM12’ binding to IQ peptides; settings: 27 °C; for n-value (stoichiometry) / ΔH: SD from three independent trials
T1 construct: made in house; host or cells: E. coli BL21(DE3) Codon Plus, pET11d

[1] = biological target: fluorescein-labeled CaV1.2 IQ peptide Y1657D (rat); experiment: fluorescence polarisation; fluorescein-labeled peptide (100 nM) titrated with apoCaM in Ca2+-free buffer: 20 mM Tris, pH 7.4, 100 mM KCl, 1 mM MgCl2, 2.0 mM EGTA

Row | Compound | binding to Ca2/CaM12’ compared to IQ^WT (Ca2/CaM12’) | n-value (stoichiometry) (Ca2/CaM12’) | ΔH (Ca2/CaM12’) [kcal/mol] | Kd [1] [µM]
1 | CC[C@H](C)[C@H](NC(=O)[C@H](CC(C)C)NC(=O)[C@H](Cc1ccccc1)NC(=O)[C@@H](NC(=O)[C@H](C)NC(=O)[C@H](Cc1ccc(O)cc1)NC(=O)[C@H](Cc1ccccc1)NC(=O)[C@H](CCCCN)NC(=O)CNC(=O)[C@@H](NC(=O)[C@@H](N)[C@@H](C)O)C(C)C)[C@@H](C)O)C(=O)N[C@@H](CCC(N)=O)C(=O)N[C@@H](CCC(=O)O)C(=O)N[C@@H](Cc1ccc(O)cc1)C(=O)N[C@@H](CC(=O)O)C(=O)N[C@@H](CCCNC(=N)N)C(=O)N[C@@H](CCCCN)C(=O)N[C@@H](Cc1ccccc1)C(=O)N[C@@H](CCCCN)C(=O)N[C@@H](CCCCN)C(=O)N[C@@H](CCCNC(=N)N)C(=O)O [IQ^F1658D] | weaker binding | 0.8 ± 0.5 | -5.9 ± 0.7 | 
2 | CC(C)C[C@H](NC(=O)[C@H](Cc1ccccc1)NC(=O)[C@@H](NC(=O)[C@H](C)NC(=O)[C@H](Cc1ccc(O)cc1)NC(=O)[C@H](Cc1ccccc1)NC(=O)[C@H](CCCCN)NC(=O)CNC(=O)[C@@H](NC(=O)[C@@H](N)[C@@H](C)O)C(C)C)[C@@H](C)O)C(=O)N[C@@H](C)C(=O)N[C@@H](CCC(N)=O)C(=O)N[C@@H](CCC(=O)O)C(=O)N[C@@H](Cc1ccc(O)cc1)C(=O)N[C@@H](Cc1ccccc1)C(=O)N[C@@H](CCCNC(=N)N)C(=O)N[C@@H](CCCCN)C(=O)N[C@@H](Cc1ccccc1)C(=O)N[C@@H](CCCCN)C(=O)N[C@@H](CCCCN)C(=O)N[C@@H](CCCNC(=N)N)C(=O)O [IQ^I1654A] | weaker binding |  |  | 
3 | CC[C@H](C)[C@H](NC(=O)[C@H](CC(C)C)NC(=O)[C@H](Cc1ccccc1)NC(=O)[C@@H](NC(=O)[C@H](C)NC(=O)[C@H](C)NC(=O)[C@H](Cc1ccccc1)NC(=O)[C@H](CCCCN)NC(=O)CNC(=O)[C@@H](NC(=O)[C@@H](N)[C@@H](C)O)C(C)C)[C@@H](C)O)C(=O)N[C@@H](CCC(N)=O)C(=O)N[C@@H](CCC(=O)O)C(=O)N[C@@H](Cc1ccc(O)cc1)C(=O)N[C@@H](Cc1ccccc1)C(=O)N[C@@H](CCCNC(=N)N)C(=O)N[C@@H](CCCCN)C(=O)N[C@@H](Cc1ccccc1)C(=O)N[C@@H](CCCCN)C(=O)N[C@@H](CCCCN)C(=O)N[C@@H](CCCNC(=N)N)C(=O)O [IQ^Y1649A] | weaker binding | 0.88 ± 0.25 | -9.7 ± 0.2 | 
4 | CC[C@H](C)[C@H](NC(=O)[C@H](CC(C)C)NC(=O)[C@H](Cc1ccccc1)NC(=O)[C@@H](NC(=O)[C@H](C)NC(=O)[C@H](Cc1ccc(O)cc1)NC(=O)[C@H](Cc1ccccc1)NC(=O)[C@H](CCCCN)NC(=O)CNC(=O)[C@@H](NC(=O)[C@@H](N)[C@@H](C)O)C(C)C)[C@@H](C)O)C(=O)N[C@@H](CCC(N)=O)C(=O)N[C@@H](CCC(=O)O)C(=O)N[C@@H](CC(=O)O)C(=O)N[C@@H](Cc1ccccc1)C(=O)N[C@@H](CCCNC(=N)N)C(=O)N[C@@H](CCCCN)C(=O)N[C@@H](Cc1ccccc1)C(=O)N[C@@H](CCCCN)C(=O)N[C@@H](CCCCN)C(=O)N[C@@H](CCCNC(=N)N)C(=O)O [IQ^Y1657D] | weaker binding |  |  | 
5 | TVGKFYATFLIQEYARKFKKR [IQ^F1658A] |  | 1.0 ± 0.25 | -9.5 ± 0.2 | 
6 | apoCaM (Ca2+-free calmodulin) (from UniProt P0DP33 1-149) (natural protein) |  |  |  | 60
